Key:
Ephrin type-A receptor 2 = Ephrin type-A receptor 2 (Homo sapiens, UniProt P29317); assay: Inhibition of EphA2 (unknown origin)
[1] = molecular target: Hepatocyte growth factor receptor (Homo sapiens, UniProt P08581); assay: Inhibition of c-MET (unknown origin)
[2] = Oral bioavailability in BALB/c mouse at 8.2 mg/kg; format: ADME, organism-based; conditions: in vivo
LP-1 = assay: Cytotoxicity against human LP-1 cells after 72 hrs by CellTitre-Glo assay; format: functional, cell-based; conditions: LP-1, 72 h
[3] = Cytotoxicity against human Capan1 cells after 72 hrs by CellTitre-Glo assay; format: functional, cell-based; conditions: CAPAN-1, 72 h
Cytochrome P450 2C9 = Cytochrome P450 2C9 (Homo sapiens, UniProt P11712); assay: Inhibition of CYP2C9 (unknown origin); format: ADME
Sequence of Cytochrome P450 2C9 (P11712 whole entry): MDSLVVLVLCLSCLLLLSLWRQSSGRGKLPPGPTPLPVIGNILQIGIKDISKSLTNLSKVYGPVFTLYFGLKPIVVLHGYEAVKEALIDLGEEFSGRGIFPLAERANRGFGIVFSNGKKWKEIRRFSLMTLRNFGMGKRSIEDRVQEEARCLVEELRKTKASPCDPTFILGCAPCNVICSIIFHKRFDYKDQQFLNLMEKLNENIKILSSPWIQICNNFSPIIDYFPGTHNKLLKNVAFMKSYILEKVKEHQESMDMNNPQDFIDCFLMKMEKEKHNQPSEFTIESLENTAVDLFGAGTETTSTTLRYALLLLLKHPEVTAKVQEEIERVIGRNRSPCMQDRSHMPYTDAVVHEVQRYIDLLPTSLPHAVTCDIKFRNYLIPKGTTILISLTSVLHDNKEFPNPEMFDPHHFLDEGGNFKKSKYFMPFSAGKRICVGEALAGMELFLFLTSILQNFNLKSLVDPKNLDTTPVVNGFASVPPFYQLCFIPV

[4] = molecular target: Receptor-type tyrosine-protein kinase FLT3 (Homo sapiens, UniProt P36888); assay: Inhibition of FLT3 (unknown origin)
[5] = molecular target: Protein-tyrosine kinase 6 (Homo sapiens, UniProt Q13882); assay: Inhibition of BRK (unknown origin)
[6] = molecular target: Tyrosine-protein kinase JAK2 (Homo sapiens, UniProt O60674); assay: Inhibition of JAK2 (unknown origin)
Sequence of Tyrosine-protein kinase JAK2 (O60674 whole entry): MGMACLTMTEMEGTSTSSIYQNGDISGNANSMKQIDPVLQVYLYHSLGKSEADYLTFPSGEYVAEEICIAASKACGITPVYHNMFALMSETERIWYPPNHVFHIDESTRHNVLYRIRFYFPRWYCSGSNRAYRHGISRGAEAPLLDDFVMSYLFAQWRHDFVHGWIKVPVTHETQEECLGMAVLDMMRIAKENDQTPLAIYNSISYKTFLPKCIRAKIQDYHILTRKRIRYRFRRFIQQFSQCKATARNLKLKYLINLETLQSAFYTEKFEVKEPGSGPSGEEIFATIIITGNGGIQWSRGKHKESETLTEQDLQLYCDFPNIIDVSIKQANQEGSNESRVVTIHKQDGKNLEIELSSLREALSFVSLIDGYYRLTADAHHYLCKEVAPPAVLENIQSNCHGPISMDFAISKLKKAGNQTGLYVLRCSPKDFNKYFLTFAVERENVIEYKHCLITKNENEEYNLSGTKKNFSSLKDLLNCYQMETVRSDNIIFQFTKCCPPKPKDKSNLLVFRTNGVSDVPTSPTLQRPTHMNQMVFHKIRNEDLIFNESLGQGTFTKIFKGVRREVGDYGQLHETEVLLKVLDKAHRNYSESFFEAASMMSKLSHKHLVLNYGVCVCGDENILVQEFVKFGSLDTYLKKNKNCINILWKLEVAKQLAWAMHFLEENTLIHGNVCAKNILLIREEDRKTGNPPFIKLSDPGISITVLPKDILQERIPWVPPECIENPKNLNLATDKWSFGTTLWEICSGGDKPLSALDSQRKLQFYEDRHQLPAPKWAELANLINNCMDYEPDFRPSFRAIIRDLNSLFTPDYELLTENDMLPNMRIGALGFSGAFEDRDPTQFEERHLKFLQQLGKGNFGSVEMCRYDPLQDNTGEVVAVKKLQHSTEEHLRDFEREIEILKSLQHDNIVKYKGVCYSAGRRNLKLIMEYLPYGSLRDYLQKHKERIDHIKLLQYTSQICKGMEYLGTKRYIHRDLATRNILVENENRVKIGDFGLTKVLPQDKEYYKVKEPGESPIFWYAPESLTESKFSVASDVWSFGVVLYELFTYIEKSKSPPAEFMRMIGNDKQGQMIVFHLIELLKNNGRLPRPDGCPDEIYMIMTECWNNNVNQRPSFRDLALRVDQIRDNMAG

hERG (KCNH2) = hERG (KCNH2) (Homo sapiens, UniProt Q12809); assay: Inhibition of human ERG channel at 10 uM
[7] = molecular target: Vascular endothelial growth factor receptor 2 (Homo sapiens, UniProt P35968); assay: Inhibition of VEGFR2 (unknown origin)
Focal adhesion kinase 1 = Focal adhesion kinase 1 (Homo sapiens, UniProt Q05397); assay: Inhibition of FAK (unknown origin)
[8] = Cytotoxicity against mouse BA/F3 cells overexpressing PIM1 after 72 hrs by CellTitre-Glo assay; format: functional, cell-based; conditions: BaF3, 72 h
[9] = molecular target: MAP kinase-interacting serine/threonine-protein kinase 2 (Homo sapiens, UniProt Q9HBH9); assay: Inhibition of MNK2 (unknown origin)
[10] = molecular target: Serine/threonine-protein kinase pim-3 (Homo sapiens, UniProt Q86V86); assay: Inhibition of human PIM3 using ARK-RERTYSFGHHA as substrate incubated for 60 mins prior to substrate addition by topcount scintillation counting analysis in presence of [P33gamma]-ATP
[11] = molecular target: Serine/threonine-protein kinase pim-1 (Mus musculus) (UniProt P06803); assay: Inhibition of PIM1 in mouse BA/F3 cells assessed as c-Myc degradation after 24 hrs by Western blotting analysis; format: cell-based; conditions: BaF3
Sequence of Serine/threonine-protein kinase pim-1 (Mus musculus) (P06803 whole entry, looked up): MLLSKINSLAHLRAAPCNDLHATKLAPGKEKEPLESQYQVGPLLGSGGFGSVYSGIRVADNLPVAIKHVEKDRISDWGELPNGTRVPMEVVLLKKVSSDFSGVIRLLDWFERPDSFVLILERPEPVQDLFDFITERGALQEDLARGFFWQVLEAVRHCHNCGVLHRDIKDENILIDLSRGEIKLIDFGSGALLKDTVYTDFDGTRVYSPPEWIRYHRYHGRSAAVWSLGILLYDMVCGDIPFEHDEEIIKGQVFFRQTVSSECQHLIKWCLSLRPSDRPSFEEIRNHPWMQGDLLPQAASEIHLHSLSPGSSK

[12] = molecular target: Serine/threonine-protein kinase pim-1 (Mus musculus) (UniProt P06803); assay: Inhibition of PIM1 in mouse BA/F3 cells assessed as phosphorylation of BAD at S112 after 24 hrs by Western blotting analysis; format: cell-based; conditions: BaF3
[13] = molecular target: Protein kinase C beta type (Homo sapiens, UniProt P05771); assay: Inhibition of PKC-beta (unknown origin)
Sequence of Protein kinase C beta type (P05771 whole entry): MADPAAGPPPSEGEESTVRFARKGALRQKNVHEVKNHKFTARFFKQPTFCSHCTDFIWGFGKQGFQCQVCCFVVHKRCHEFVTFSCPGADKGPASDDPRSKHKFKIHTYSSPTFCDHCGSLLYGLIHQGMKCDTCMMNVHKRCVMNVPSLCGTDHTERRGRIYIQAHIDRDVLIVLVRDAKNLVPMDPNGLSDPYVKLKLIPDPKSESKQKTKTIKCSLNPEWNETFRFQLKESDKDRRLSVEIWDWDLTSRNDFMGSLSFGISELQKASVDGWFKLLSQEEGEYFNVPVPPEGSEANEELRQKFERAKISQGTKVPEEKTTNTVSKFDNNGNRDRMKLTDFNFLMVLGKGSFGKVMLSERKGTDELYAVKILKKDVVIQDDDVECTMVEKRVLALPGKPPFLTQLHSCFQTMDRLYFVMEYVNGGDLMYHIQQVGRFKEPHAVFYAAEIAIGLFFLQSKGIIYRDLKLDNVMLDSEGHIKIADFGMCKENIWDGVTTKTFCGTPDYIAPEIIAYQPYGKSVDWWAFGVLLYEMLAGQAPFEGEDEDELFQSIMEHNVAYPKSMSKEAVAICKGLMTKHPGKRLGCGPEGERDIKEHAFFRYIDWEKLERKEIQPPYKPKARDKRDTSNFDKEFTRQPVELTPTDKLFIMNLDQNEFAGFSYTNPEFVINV

[14] = Cytotoxicity against human NCI-H929 cells after 72 hrs by CellTitre-Glo assay; format: functional, cell-based; conditions: NCI-H929, 72 h
[15] = Intrinsic clearance in human liver microsomes after 5 mins by LC-MS/MS analysis; format: ADME; conditions: read-out: CLH
[16] = molecular target: Eukaryotic elongation factor 2 kinase (Homo sapiens, UniProt O00418); assay: Inhibition of EEF2K (unknown origin)
Aurora kinase B = Aurora kinase B (Homo sapiens, UniProt Q96GD4); assay: Inhibition of aurora kinase 2 (unknown origin)
[17] = Volume of distribution at steady state in BALB/c mouse at 8.2 mg/kg, iv; format: ADME, organism-based; parameters: dose 8.2 mg/kg, route intravenous; conditions: in vivo, read-out: Vdss
[18] = Inhibition of PKA-alpha (unknown origin); parameters: species or system Homo sapiens
[19] = molecular target: CDC7/DBF4 (Cell division cycle 7-related protein kinase/Activator of S phase kinase) (Homo sapiens, UniProt O00311); assay: Inhibition of CDC7/DBF4 (unknown origin); format: protein-complex assay
RPMI-8226 = assay: Cytotoxicity against human RPMI8226 cells after 72 hrs by CellTitre-Glo assay; format: functional, cell-based; conditions: RPMI-8226, 72 h
[20] = molecular target: Serine/threonine-protein kinase Chk1 (Homo sapiens, UniProt O14757); assay: Inhibition of CHK1 (unknown origin)
[21] = Half life in BALB/c mouse at 8.2 mg/kg, po; format: ADME, organism-based; parameters: dose 8.2 mg/kg, route oral; conditions: in vivo
[22] = Half life in BALB/c mouse at 8.2 mg/kg, iv; format: ADME, organism-based; parameters: dose 8.2 mg/kg, route intravenous; conditions: in vivo
[23] = molecular target: Maternal embryonic leucine zipper kinase (Homo sapiens, UniProt Q14680); assay: Inhibition of MELK (unknown origin)
[24] = Clearance in BALB/c mouse at 8.2 mg/kg, iv; format: ADME, organism-based; parameters: dose 8.2 mg/kg, route intravenous; conditions: in vivo
[25] = molecular target: Serine/threonine-protein kinase 26 (Homo sapiens, UniProt Q9P289); assay: Inhibition of MST4 (unknown origin)
[26] = molecular target: Tyrosine-protein kinase Lyn (Homo sapiens, UniProt P07948); assay: Inhibition of LYN (unknown origin)
[27] = molecular target: Mast/stem cell growth factor receptor Kit (Homo sapiens, UniProt P10721); assay: Inhibition of KIT (unknown origin)
[28] = molecular target: Tyrosine-protein kinase ZAP-70 (Homo sapiens, UniProt P43403); assay: Inhibition of ZAP70 (unknown origin)
[29] = molecular target: Glycogen synthase kinase-3 beta (Homo sapiens, UniProt P49841); assay: Inhibition of GSK3beta (unknown origin)
[30] = molecular target: Tyrosine-protein kinase JAK3 (Homo sapiens, UniProt P52333); assay: Inhibition of JAK3 (unknown origin)
LNCaP = assay: Cytotoxicity against human LNCAP cells after 72 hrs by CellTitre-Glo assay; format: functional, cell-based
[31] = molecular target: Proto-oncogene tyrosine-protein kinase ROS (Homo sapiens, UniProt P08922); assay: Inhibition of ROS1 (unknown origin)
[32] = molecular target: Non-receptor tyrosine-protein kinase TYK2 (Homo sapiens, UniProt P29597); assay: Inhibition of TYK2 (unknown origin)
[33] = molecular target: Serine/threonine-protein kinase NIM1 (Homo sapiens, UniProt Q8IY84); assay: Inhibition of NIM1 (unknown origin)
Sequence of Serine/threonine-protein kinase NIM1 (Q8IY84 whole entry): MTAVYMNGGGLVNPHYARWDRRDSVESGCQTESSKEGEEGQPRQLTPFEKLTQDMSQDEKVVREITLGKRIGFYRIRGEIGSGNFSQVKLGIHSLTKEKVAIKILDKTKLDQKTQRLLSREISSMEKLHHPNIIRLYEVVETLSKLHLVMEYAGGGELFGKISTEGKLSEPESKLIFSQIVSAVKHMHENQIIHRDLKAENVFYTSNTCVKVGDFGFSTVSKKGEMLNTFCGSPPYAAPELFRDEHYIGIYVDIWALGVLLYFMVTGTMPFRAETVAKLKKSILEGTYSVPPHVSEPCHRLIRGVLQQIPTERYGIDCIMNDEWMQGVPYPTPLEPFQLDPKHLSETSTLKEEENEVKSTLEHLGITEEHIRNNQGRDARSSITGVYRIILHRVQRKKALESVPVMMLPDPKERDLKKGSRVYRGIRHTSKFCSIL

[34] = molecular target: Mitotic checkpoint serine/threonine-protein kinase BUB1 (Homo sapiens, UniProt O43683); assay: Inhibition of BUB1 (unknown origin)
[35] = molecular target: Tyrosine-protein kinase SYK (Homo sapiens, UniProt P43405); assay: Inhibition of Syk (unknown origin)
[36] = molecular target: High affinity nerve growth factor receptor (Homo sapiens, UniProt P04629); assay: Inhibition of TRKA (unknown origin)
[37] = Cytotoxicity against human KMS11 cells after 72 hrs by CellTitre-Glo assay; format: functional, cell-based; conditions: KMS-11, 72 h
[38] = Clearance in human hepatocytes; format: ADME, cell-based, Hepatocyte; conditions: read-out: CLH
[39] = molecular target: Serine/threonine-protein kinase pim-1 (Mus musculus) (UniProt P06803); assay: Inhibition of PIM1 in mouse BA/F3 cells assessed as phosphorylation of 4EBP1 at T37/T46 after 24 hrs by Western blotting analysis; format: cell-based; conditions: BaF3
[40] = molecular target: Inhibitor of nuclear factor kappa-B kinase subunit beta (Homo sapiens, UniProt O14920); assay: Inhibition of IKK2 (unknown origin)
Sequence of Inhibitor of nuclear factor kappa-B kinase subunit beta (O14920 whole entry): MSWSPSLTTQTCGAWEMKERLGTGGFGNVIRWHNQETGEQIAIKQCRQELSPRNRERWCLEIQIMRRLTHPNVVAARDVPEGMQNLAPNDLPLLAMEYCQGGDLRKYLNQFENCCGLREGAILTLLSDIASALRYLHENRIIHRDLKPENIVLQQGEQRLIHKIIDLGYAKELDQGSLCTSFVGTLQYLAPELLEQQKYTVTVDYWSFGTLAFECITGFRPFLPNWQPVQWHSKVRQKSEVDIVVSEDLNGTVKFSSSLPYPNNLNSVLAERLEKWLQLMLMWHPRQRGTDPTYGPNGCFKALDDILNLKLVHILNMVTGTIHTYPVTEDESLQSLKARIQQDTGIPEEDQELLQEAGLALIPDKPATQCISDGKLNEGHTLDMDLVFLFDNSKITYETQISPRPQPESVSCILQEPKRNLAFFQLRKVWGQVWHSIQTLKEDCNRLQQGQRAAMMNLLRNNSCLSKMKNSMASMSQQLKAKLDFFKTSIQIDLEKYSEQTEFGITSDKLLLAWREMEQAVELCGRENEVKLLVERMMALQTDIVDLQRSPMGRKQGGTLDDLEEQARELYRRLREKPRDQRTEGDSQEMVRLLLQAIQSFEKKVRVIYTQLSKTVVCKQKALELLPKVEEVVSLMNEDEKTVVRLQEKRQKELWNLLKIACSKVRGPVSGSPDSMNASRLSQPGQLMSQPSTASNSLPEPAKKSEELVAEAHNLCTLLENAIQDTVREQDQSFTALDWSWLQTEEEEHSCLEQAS

[41] = AUC in BALB/c mouse at 8.2 mg/kg, po; format: ADME, organism-based; parameters: dose 8.2 mg/kg, route oral; conditions: plasma
[42] = molecular target: MAP kinase-activated protein kinase 2 (Homo sapiens, UniProt P49137); assay: Inhibition of MAPKAPK2 (unknown origin)

Sequence of Ephrin type-A receptor 2 (P29317 whole entry): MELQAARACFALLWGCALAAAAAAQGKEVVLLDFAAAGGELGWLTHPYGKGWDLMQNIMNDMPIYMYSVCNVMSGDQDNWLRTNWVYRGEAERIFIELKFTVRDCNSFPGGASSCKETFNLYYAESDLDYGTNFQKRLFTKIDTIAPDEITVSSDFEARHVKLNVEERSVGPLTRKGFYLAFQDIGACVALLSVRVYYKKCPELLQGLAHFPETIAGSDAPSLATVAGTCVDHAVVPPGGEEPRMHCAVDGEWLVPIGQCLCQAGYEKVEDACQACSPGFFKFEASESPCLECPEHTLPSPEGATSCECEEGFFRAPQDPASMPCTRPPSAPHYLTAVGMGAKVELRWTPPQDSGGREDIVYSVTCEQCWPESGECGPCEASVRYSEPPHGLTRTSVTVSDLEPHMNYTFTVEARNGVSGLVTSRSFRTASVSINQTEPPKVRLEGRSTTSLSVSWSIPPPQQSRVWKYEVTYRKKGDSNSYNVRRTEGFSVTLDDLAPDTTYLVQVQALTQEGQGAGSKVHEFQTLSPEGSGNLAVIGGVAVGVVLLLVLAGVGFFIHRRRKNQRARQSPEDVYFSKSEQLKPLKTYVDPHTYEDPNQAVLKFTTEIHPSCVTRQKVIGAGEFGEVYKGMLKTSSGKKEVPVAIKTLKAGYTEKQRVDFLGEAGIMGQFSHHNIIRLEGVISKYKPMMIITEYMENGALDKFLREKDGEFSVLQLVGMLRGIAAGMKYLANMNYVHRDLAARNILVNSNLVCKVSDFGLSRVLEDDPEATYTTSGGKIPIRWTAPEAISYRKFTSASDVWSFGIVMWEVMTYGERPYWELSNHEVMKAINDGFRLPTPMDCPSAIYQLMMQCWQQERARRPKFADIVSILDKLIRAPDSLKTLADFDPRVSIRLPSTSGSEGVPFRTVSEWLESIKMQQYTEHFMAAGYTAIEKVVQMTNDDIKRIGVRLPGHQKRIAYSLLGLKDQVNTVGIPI

## CN1CCN(C[C@@H](NC(=O)C[C@H]2CNC(=O)c3cc(-c4cccc(Cl)c4)cn32)C2CCCCC2)CC1
Ephrin type-A receptor 2
  IC50: > 10 µM
[1]
  IC50: > 10 µM
[2]
  bioavailability: 0.65%
LP-1
  IC50: 1.93 µM
[3]
  IC50: 3.7 µM
Cytochrome P450 2C9
  IC50: > 10 µM
[4]
  IC50: > 10 µM
[5]
  IC50: > 10 µM
[6]
  IC50: > 10 µM
hERG (KCNH2)
  inhibition at 10 µM: 16%
[7]
  IC50: > 10 µM
Focal adhesion kinase 1
  IC50: > 10 µM
[8]
  IC50: 0.125 µM
[9]
  IC50: > 10 µM
[10]
  IC50: 0.012 µM
[11]
  inhibition: Dose-dependent effect
[12]
  inhibition: Dose-dependent effect
[13]
  IC50: > 10 µM
[14]
  IC50: 5.93 µM
[15]
  CLint scaled: 0.354 L/h/kg
[16]
  IC50: > 10 µM
Aurora kinase B
  IC50: > 10 µM
[17]
  Vd: 11.3 L/kg
[18]
  IC50: > 10 µM
[19]
  IC50: > 10 µM
RPMI-8226
  IC50: 6.66 µM
[20]
  IC50: > 10 µM
[21]
  half-life: 1.25 h
[22]
  half-life: 13.6 h
[23]
  IC50: > 10 µM
[24]
  clearance: 1.68 L/h/kg
[25]
  IC50: > 10 µM
[26]
  IC50: > 10 µM
[27]
  IC50: > 10 µM
[28]
  IC50: > 10 µM
[29]
  IC50: > 10 µM
[30]
  IC50: > 10 µM
LNCaP
  IC50: 3.31 µM
[31]
  IC50: > 10 µM
[32]
  IC50: > 10 µM
[33]
  IC50: > 10 µM
[34]
  IC50: > 10 µM
[35]
  IC50: > 10 µM
[36]
  IC50: > 10 µM
[37]
  IC50: 7.13 µM
[38]
  CLint scaled: 0.354 L/h/kg
[39]
  inhibition: Dose-dependent effect
[40]
  IC50: > 10 µM
[41]
  AUC: 50 nM·h
[42]
  IC50: > 10 µM

Source: ChEMBL document CHEMBL3297733, “Discovery and optimization of pyrrolo[1,2-a]pyrazinones leads to novel and selective inhibitors of PIM kinases” (Bioorg Med Chem, 2013)
